From patent US11318157B2, “6-6 bicyclic aromatic ring substituted nucleoside analogues for use as PRMT5 inhibitors” (Janssen Pharmaceutica NV, priority 2015, dated 2022)
Like-named read-outs stand apart in the source and are kept apart here.

Key:
PRMT5 = PRMT5 (Homo sapiens, UniProt O14744); details: literature statement; cited from earlier work
MCL xenograft models = details: multiple MCL xenograft models; cited from earlier work
PRMT5-MEP50 enzyme [1] = molecular target: T1, PRMT5-MEP50 enzyme (Homo sapiens, UniProt O14744); experiment: In vitro assay 1b: high throughput mass spectrometer assay of SAH formation, 1.25 nM enzyme, 120 min; format: biochemical
T1 construct: One virus expresses full length human PRMT5 with Flag-tag at N-terminus; Flag (N); purchased Charles River (Argenta); host or cells: insect cells (Sf9), baculovirus co-infection
T1 sequence (O14744 whole entry): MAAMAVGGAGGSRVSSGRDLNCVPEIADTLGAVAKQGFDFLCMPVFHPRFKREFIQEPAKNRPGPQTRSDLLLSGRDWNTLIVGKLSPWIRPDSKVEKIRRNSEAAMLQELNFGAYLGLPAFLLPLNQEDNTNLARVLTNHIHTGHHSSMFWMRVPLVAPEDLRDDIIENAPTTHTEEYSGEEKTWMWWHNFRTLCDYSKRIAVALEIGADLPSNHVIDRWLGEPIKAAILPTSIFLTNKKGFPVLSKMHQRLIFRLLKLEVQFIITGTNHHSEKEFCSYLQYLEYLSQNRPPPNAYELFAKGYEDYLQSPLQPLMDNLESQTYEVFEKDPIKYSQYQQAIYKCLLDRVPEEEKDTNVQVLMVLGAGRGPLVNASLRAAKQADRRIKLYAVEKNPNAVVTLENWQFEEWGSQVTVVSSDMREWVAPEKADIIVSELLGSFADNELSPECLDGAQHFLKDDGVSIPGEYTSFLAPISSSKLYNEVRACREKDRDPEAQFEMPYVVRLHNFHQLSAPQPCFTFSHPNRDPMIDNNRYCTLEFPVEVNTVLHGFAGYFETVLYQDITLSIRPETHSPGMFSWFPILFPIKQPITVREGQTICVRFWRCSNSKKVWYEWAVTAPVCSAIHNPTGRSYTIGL
T1 sequence (Q9BQA1 whole entry partner): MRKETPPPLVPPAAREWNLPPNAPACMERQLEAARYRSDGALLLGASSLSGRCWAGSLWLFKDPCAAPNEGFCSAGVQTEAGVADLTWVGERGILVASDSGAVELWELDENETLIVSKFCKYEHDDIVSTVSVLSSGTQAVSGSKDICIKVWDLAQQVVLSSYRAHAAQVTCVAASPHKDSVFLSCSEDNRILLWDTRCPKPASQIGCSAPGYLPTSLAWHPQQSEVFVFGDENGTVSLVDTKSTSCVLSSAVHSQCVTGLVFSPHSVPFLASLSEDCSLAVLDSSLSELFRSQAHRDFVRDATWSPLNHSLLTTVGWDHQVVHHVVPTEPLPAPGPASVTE
How it was run: (§1)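 SAH product measured by RapidFire mass spectrometry after formic acid stop; IC50 from 11-point 1:2 dilutions, four-parameter fit. Reactions at 30 °C in 20 mM Tris pH 8.5 with 1 μM SAM, 0.3 μM H2A: assay 1a 10 nM PRMT5-MEP50, 60 min; assay 1b 1.25 nM, 120 min.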

PRMT5-MEP50 enzyme [2] = molecular target: T1, PRMT5-MEP50 enzyme; experiment: In vitro assay 1a: high throughput mass spectrometer assay of SAH formation, 10 nM enzyme, 60 min; format: biochemical; details: averaged values, PRMT5-MEP50, 10 nM enzyme
How it was run: as §1

[3] = system: nuclear symmetric Arginine dimethylation in A549 cells; experiment: PD assay (assay 2): inhibition of nuclear symmetric Arginine dimethylation (SYM10 immunohistochemistry), 48 h; format: cell-based; details: Homo sapiens
How it was run: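 Cells seeded at 400/well overnight, then treated 48 h at 37 °C, final DMSO 0.2%. Fixed and stained with SYM10 antibody plus Alexa 488 secondary, Hoechst and CellMask, then imaged on Opera. Normalized to DMSO (high) and 10 μM reference compound (low); averaged pIC50 reported.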

[4] = averaged values, PRMT5-MEP50, 1.25 nM enzyme, 120 min, read-out: pIC50 Assay 1b (converted)
[5] = read-out: pIC50 Assay 1a (converted)
[6] = A549, averaged values, PD assay, A549 cells, symmetric Arginine dimethylation, read-out: pIC50 Assay 2 (converted)

Chain of PRMT5 (O14744 whole entry, species assumed): as the sequence (O14744 whole entry) above
Chain of PRMT5 (Q9BQA1 whole entry partner, species assumed): as the sequence (Q9BQA1 whole entry partner) above

| Compound | IC50 (PRMT5-MEP50 enzyme [1]; [4]) [nM] | IC50 (PRMT5-MEP50 enzyme [2]; [5]) [nM] | IC50 [3, 6] [nM] | potency as PRMT5 inhibitor (PRMT5) | anti-tumour activity (MCL xenograft models) | IC50 (PRMT5-MEP50 enzyme [1]) [nM] | IC50 (PRMT5-MEP50 enzyme [2]; pIC50 Assay 1a) [nM] | IC50 ([3]; A549, read-out: pIC50 Assay 2 (converted)) [nM] |
| --- | --- | --- | --- | --- | --- | --- | --- | --- |
| O=C(NC[C@H](O)CN1CCc2ccccc2C1)c1cc(NC2COC2)ncn1 [EPZ015666] | – | – | – | sub-nanomolar | anti-tumour activity | – | – | – |
| Nc1ncnc2c1ccn2[C@@H]1C[C@H](/C=C/c2ccc3cccnc3c2)[C@@H](O)[C@H]1O [Compound 55] | – | – | ~51.3 | – | – | 31.6 | 7.94 | – |
| C=C(C)c1cnc2cc(OC[C@H]3O[C@@H](n4ccc5c(N)ncnc54)[C@H](O)[C@@H]3O)ccc2c1 [Compound 212] | 50.1 | 20 | – | – | – | – | – | 200 |
| Nc1ncnc2c1ccn2[C@@H]1C[C@H](OCc2ccc3cccnc3c2)[C@@H](O)[C@H]1O [Compound 64] | – | – | ~1070 | – | – | 794 | 126 | – |
| Nc1ncnc2c1ccn2[C@@H]1O[C@H](CNc2ccc3cc(Br)cnc3c2)[C@@H](O)[C@H]1O [Compound 51] | 15.8 | 10 | ~15.5 | – | – | – | – | – |
| CC(C)C(=O)O[C@@H]1[C@H](OC(=O)C(C)C)[C@@H](COc2ccc3cc(Br)cnc3c2)O[C@H]1n1ccc2c(N)ncnc21 [Compound 73] | > 100000 | > 10000 | 100 | – | – | – | – | – |
| Cc1ccnc2cc(OC[C@H]3O[C@@H](n4ccc5c(N)ncnc54)[C@H](O)[C@@H]3O)ccc12 [Compound 32] | 126 | 39.8 | 501 | – | – | – | – | – |
| CN(C[C@H]1O[C@@H](n2ccc3c(Cl)ncnc32)[C@H](O)[C@@H]1O)c1ccc2cc(Br)cnc2c1 [Compound 86] | 1000 | 2510 | 5010 | – | – | – | – | – |
| COc1cc2c(Cl)c(C#N)cnc2cc1OC[C@H]1O[C@@H](n2ccc3c(N)ncnc32)[C@H](O)[C@@H]1O [Compound 30] | 39800 | > 10000 | > 10000 | – | – | – | – | – |
| Nc1ncnc2c1ccn2[C@@H]1O[C@H](CNc2ccc3cccnc3c2)[C@@H](O)[C@H]1O [Compound 49] | 10 | 3.98 | 10 | – | – | – | – | – |
| N#Cc1cnc2cc(OC[C@H]3O[C@@H](n4ccc5c(N)ncnc54)[C@H](O)[C@@H]3O)ccc2c1Cl [Compound 28] | 7940 | > 10000 | > 20000 | – | – | – | – | – |
| Nc1ncnn2c([C@@H]3O[C@H](CCc4ccc5cccnc5c4)[C@@H](O)[C@H]3O)ccc12 [Compound 62] | 794 | 631 | 1580 | – | – | – | – | – |
| Nc1ncnc2c1ccn2[C@@H]1C[C@H](CNc2ccc3cc(Br)cnc3c2)[C@@H](O)[C@H]1O [Compound 54] | 15.8 | 15.8 | 31.6 | – | – | – | – | – |
| Nc1ncnc2c1ccn2[C@@H]1O[C@H](C#Cc2ccc3cccnc3c2)[C@@H](O)[C@H]1O [Compound 63] | 126 | 25.1 | 200 | – | – | – | – | – |
| N#Cc1cnc2cc(OC[C@H]3O[C@@H](n4ccc5c(N)ncnc54)[C@H](O)[C@@H]3O)ccc2c1N [Compound 29] | 1260 | 501 | 15800 | – | – | – | – | – |
| Nc1ncnc2c1c(F)cn2[C@@H]1O[C@H](COc2ccc3cccnc3c2)[C@@H](O)[C@H]1O [Compound 44] | 126 | 63.1 | 251 | – | – | – | – | – |
| Nc1ncnc2c1ccn2[C@@H]1O[C@H](COc2cc3ncc(Br)cc3cc2F)[C@@H](O)[C@H]1O [Compound 106] | 158 | 63.1 | 398 | – | – | – | – | – |
| Nc1ncnc2c1ccn2[C@@H]1O[C@H](COc2ccc3ccc(C(F)(F)F)nc3c2)[C@@H](O)[C@H]1O [Compound 22] | 25100 | 6310 | ~17800 | – | – | – | – | – |
| Nc1ncnc2c1ccn2[C@@H]1O[C@H](COc2cnc3ccccc3c2)[C@@H](O)[C@H]1O [Compound 10] | 3980 | 3160 | ~7080 | – | – | – | – | – |
| CC(C)C(=O)O[C@@H]1[C@H](OC(=O)C(C)C)[C@@H](COc2ccc3ccc(C(F)(F)F)nc3c2)O[C@H]1n1ccc2c(N)ncnc21 [Compound 72] | > 100000 | > 10000 | > 10000 | – | – | – | – | – |
| Nc1ncnn2c([C@@H]3O[C@H](/C=C/c4ccc5cccnc5c4)[C@@H](O)[C@H]3O)ccc12 [Compound 61] | 1000 | 398 | ~1320 | – | – | – | – | – |
| Nc1ncnc2c1ccn2[C@@H]1O[C@H](COc2ccc3c(Cl)ccnc3c2)[C@@H](O)[C@H]1O [Compound 33] | 794 | 158 | 501 | – | – | – | – | – |
| CC(C)C(=O)O[C@@H]1[C@H](OC(=O)C(C)C)[C@@H](COc2ccc3cccnc3c2)O[C@H]1n1ccc2c(N)ncnc21 [Compound 89] | 31600 | > 10000 | 63.1 | – | – | – | – | – |
| Nc1ncnc2c1ccn2[C@@H]1O[C@H](COc2cccc3cnccc23)[C@@H](O)[C@H]1O [Compound 6] | 5010 | 3160 | > 10000 | – | – | – | – | – |
| Nc1ncnc2c1ccn2[C@@H]1O[C@H](COc2ccc3c(C(F)(F)F)ccnc3c2)[C@@H](O)[C@H]1O [Compound 99] | > 100000 | > 10000 | > 10000 | – | – | – | – | – |

The next lines start with results.

| IC50 (PRMT5-MEP50 enzyme [1]; [4]) [nM] | IC50 (PRMT5-MEP50 enzyme [2]; [5]) [nM] | IC50 [3, 6] [nM] | Compound | potency as PRMT5 inhibitor (PRMT5) | anti-tumour activity (MCL xenograft models) | IC50 (PRMT5-MEP50 enzyme [1]) [nM] | IC50 (PRMT5-MEP50 enzyme [2]; pIC50 Assay 1a) [nM] | IC50 ([3]; A549, read-out: pIC50 Assay 2 (converted)) [nM] |
| --- | --- | --- | --- | --- | --- | --- | --- | --- |
| 25.1 | 3.98 | 20 | CCc1cnc2cc(CC[C@H]3C[C@@H](n4ccc5c(N)ncnc54)[C@H](O)[C@@H]3O)ccc2c1 [Compound 125] | – | – | – | – | – |
| 50.1 | 12.6 | 79.4 | CCc1cnc2cc(CC[C@H]3O[C@@H](n4ccc5c(N)ncnc54)[C@H](O)[C@@H]3O)ccc2c1 [Compound 122] | – | – | – | – | – |
| 100 | 39.8 | 63.1 | Cc1cc2c(N)ncnc2n1[C@@H]1O[C@H](COc2ccc3cc(Br)cnc3c2)[C@@H](O)[C@H]1O [Compound 108] | – | – | – | – | – |
| 15.8 | 0.794 | 5.01 | Nc1ncnc2c1ccn2[C@@H]1C[C@H](CCc2ccc3ccc(NCC(F)(F)F)nc3c2)[C@@H](O)[C@H]1O [Compound 151] | – | – | – | – | – |
| 50.1 | 6.31 | 794 | O[C@@H]1[C@H](O)[C@@H](COc2ccc3ccc(NCC4CC4)nc3c2)O[C@H]1n1ccc2c(Cl)ncnc21 [Compound 140] | – | – | – | – | – |
| 63.1 | 6.31 | 79.4 | O[C@@H]1[C@H](O)[C@@H](COc2ccc3ccc(NCC4CC4)nc3c2)O[C@H]1n1ccc2cncnc21 [Compound 170] | – | – | – | – | – |
| 1.58 | 2 | 0.501 | Nc1ccc2ccc(CC[C@H]3C[C@@H](n4ccc5c(Cl)ncnc54)[C@H](O)[C@@H]3O)cc2n1 [Compound 110] | – | – | – | – | – |
| 10 | 1.26 | 6.31 | Nc1ncnc2c1ccn2[C@@H]1O[C@H](CCc2ccc3ccc(NCC4CC4)nc3c2)[C@@H](O)[C@H]1O [Compound 139] | – | – | – | – | – |
| 5.01 | 10 | ~5.5 | O[C@@H]1[C@@H](CCc2ccc3ccc(NCC4CC4)nc3c2)C[C@@H](n2ccc3c(Cl)ncnc32)[C@@H]1O [Compound 115] | – | – | – | – | – |
| 15.8 | 7.94 | 63.1 | CCc1cnc2cc(OC[C@H]3O[C@@H](n4ccc5c(N)ncnc54)[C@H](O)[C@@H]3O)ccc2c1 [Compound 213] | – | – | – | – | – |
| 15.8 | 2 | 39.8 | O[C@@H]1[C@H](O)[C@@H](COc2ccc3ccc(NCc4ccc(Cl)cc4)nc3c2)O[C@H]1n1ccc2cncnc21 [Compound 173] | – | – | – | – | – |
| 3.98 | 1.26 | 3.98 | Nc1ncnc2c1ccn2[C@@H]1O[C@H](COc2ccc3ccc(NCc4ccccc4)nc3c2)[C@@H](O)[C@H]1O [Compound 107] | – | – | – | – | – |
| 794 | 398 | 200 | Nc1ncnc2c1ccn2[C@@H]1C[C@H](CCc2ccc3cc(Br)c(NCC4CC4)nc3c2)[C@@H](O)[C@H]1O [Compound 148] | – | – | – | – | – |
| 7.94 | 0.631 | 12.6 | Nc1ccc2ccc(OC[C@H]3O[C@@H](n4ccc5c(Cl)ncnc54)[C@H](O)[C@@H]3O)cc2n1 [Compound 130] | – | – | – | – | – |
